The source made the active and inactive calls. The calls are words filed in the database; no cut-off is given here.

Holding throughout (assay type): functional
The test system of experiment [1] is Staphylococcus aureus. The experiment is described as follows: Antibacterial activity against Staphylococcus aureus ATCC 25923 at 0.25 ug/ml after 24 hr by agar well diffusion method. Particulars: ATCC 25923, 24 h, read-out: DIZ. On the technique in general: A growth-free zone around the sample is the usual read-out of agar diffusion tests.
Experiment [2] concerns Shigella boydii. The experiment is described as follows: Antibacterial activity against Shigella boydii type 11 at 0.25 ug/ml after 24 hr by agar well diffusion method. Particulars: type 11, 24 h, read-out: DIZ.
The test system of experiment [3] is Escherichia coli. Briefly: Antibacterial activity against Escherichia coli ATCC 1280 at 0.25 ug/ml after 24 hr by agar well diffusion method. The following applies: ATCC 1280, 24 h, read-out: DIZ.
The next experiment concerns Candida albicans. Briefly: Antifungal activity against Candida albicans Y-1200-NIH at 0.25 ug/ml after 24 hr by agar well diffusion method. Particulars: for zone of inhibition at 0.25 µg/mL: read-out: DIZ.
Experiment [4] deals with Salmonella typhimurium. Briefly: Antibacterial activity against Salmonella enterica subsp. enterica serovar Typhi H NCTC 901.8394 at 0.25 ug/ml after 24 hr by agar well diffusion method. The following applies: H NCTC 901.8394, 24 h, read-out: DIZ.
For experiment [5], the system named is Shigella boydii. Briefly: Antibacterial activity against Shigella boydii type 16 at 0.25 ug/ml after 24 hr by agar well diffusion method. The following applies: type 16, 24 h, read-out: DIZ.
Experiment [6] deals with Listeria monocytogenes. Briefly: Antibacterial activity against Listeria monocytogenes ATCC 19115 at 0.25 ug/ml after 24 hr by agar well diffusion method. Particulars: for zone of inhibition at 0.25 µg/mL: ATCC 19115, 24 h, read-out: DIZ.
For the next experiment, the system named is Brucella abortus. Briefly: Antibacterial activity against Brucella abortus RSKK-03026 at 0.25 ug/ml after 24 hr by agar well diffusion method.
Experiment [7] relates to Shigella boydii. Briefly: Antibacterial activity against Shigella boydii type 6 RSKK-96043 at 0.25 ug/ml after 24 hr by agar well diffusion method. The following applies: type 6 RSKK-96043, 24 h, read-out: DIZ.
In experiment [8] the test system is Proteus. Briefly: Antibacterial activity against Proteus OX2 Wrah at 0.25 ug/ml after 24 hr by agar well diffusion method.
For experiment [9], the system named is Pseudomonas putida. Briefly: Antibacterial activity against Pseudomonas putida at 0.25 ug/ml after 24 hr by agar well diffusion method. Particulars: for zone of inhibition at 0.25 µg/mL: read-out: DIZ.
The test system of experiment [10] is Shigella boydii. The experiment is described as follows: Antibacterial activity against Shigella boydii type 11 at 30 ug after 24 hr by agar well diffusion method. The following applies: type 11, 24 h, read-out: DIZ.
The test system of experiment [11] is Escherichia coli. Briefly: Antibacterial activity against Escherichia coli ATCC 1280 at 30 ug after 24 hr by agar well diffusion method. Particulars: ATCC 1280, 24 h, read-out: DIZ.
The test system of experiment [12] is Staphylococcus aureus. Briefly: Antibacterial activity against Staphylococcus aureus ATCC 25923 at 30 ug after 24 hr by agar well diffusion method. Particulars: ATCC 25923, 24 h, read-out: DIZ.
For experiment [13], the system named is Listeria monocytogenes. The experiment is described as follows: Antibacterial activity against Listeria monocytogenes ATCC 19115 at 30 ug after 24 hr by agar well diffusion method. The following applies: ATCC 19115, 24 h, read-out: DIZ.
Experiment [14] relates to Proteus. Briefly: Antibacterial activity against Proteus OX2 Wrah at 30 ug after 24 hr by agar well diffusion method. The following applies: read-out: DIZ.
The test system of experiment [15] is Shigella boydii. The experiment is described as follows: Antibacterial activity against Shigella boydii type 16 at 30 ug after 24 hr by agar well diffusion method. The following applies: type 16, 24 h, read-out: DIZ.
Experiment [16] has as its system Pseudomonas putida. The experiment is described as follows: Antibacterial activity against Pseudomonas putida at 30 ug after 24 hr by agar well diffusion method. The following applies: read-out: DIZ.
The test system of experiment [17] is Shigella boydii. The experiment is described as follows: Antibacterial activity against Shigella boydii type 6 RSKK-96043 at 30 ug after 24 hr by agar well diffusion method. Particulars: type 6 RSKK-96043, 24 h, read-out: DIZ.
Experiment [18] relates to Salmonella typhimurium. The experiment is described as follows: Antibacterial activity against Salmonella enterica subsp. enterica serovar Typhi H NCTC 901.8394 at 30 ug after 24 hr by agar well diffusion method. Particulars: H NCTC 901.8394, 24 h, read-out: DIZ.

As to `CCOC(=O)c1c(/N=C/c2c(O)ccc3ccccc23)sc2c1CCC2`, the zone of inhibition at 0.25 µg/mL came to 14 mm with Staphylococcus aureus [1]; 8 mm in the experiment with Shigella boydii [2]; 6 mm with Escherichia coli [3]; 14 mm in the experiment on Candida albicans; 6 mm in the experiment with Salmonella typhimurium [4]; 7 mm with Shigella boydii [5]. The zone of inhibition at 0.25 µg/mL was 7 mm with Listeria monocytogenes [6], 6 mm in the experiment with Shigella boydii [7], 5 mm in the experiment on Proteus [8] (read-out: DIZ) and 8 mm in the experiment with Pseudomonas putida [9]. Moreover, the “diameter of the inhibition zone (DIZ)” value with Brucella abortus was “inactive”.
With `CCOC(=O)c1c(/N=C/c2c(O)ccc3ccccc23)sc2c1CCCC2`, the zone of inhibition at 0.25 µg/mL in the experiment on Staphylococcus aureus [1] turned out to be 9 mm; with Shigella boydii [2], 7 mm; in the experiment on Escherichia coli [3], 6 mm; with Salmonella typhimurium [4], 7 mm; with Shigella boydii [5], 8 mm; with Listeria monocytogenes [6], 9 mm. In addition, the zone of inhibition at 0.25 µg/mL in the experiment with Shigella boydii [7] and in the experiment on Pseudomonas putida [9] was 7 mm each time. Further, the “diameter of the inhibition zone (DIZ)” value in the experiment on Candida albicans, in the experiment on Brucella abortus and in the experiment with Proteus [8] was “inactive” in each case.
As to `CCOC(=O)c1c(/N=C/c2c(O)ccc3ccccc23)sc2c1CCCCC2`, the zone of inhibition at 0.25 µg/mL turned out to be 9 mm with Staphylococcus aureus [1]; 8 mm in the experiment on Shigella boydii [2]; 9 mm in the experiment on Escherichia coli [3]; 11 mm with Candida albicans; 8 mm in the experiment on Salmonella typhimurium [4]; 8 mm in the experiment on Shigella boydii [5]. Besides, the zone of inhibition at 0.25 µg/mL in the experiment with Brucella abortus (RSKK-03026, 24 h, read-out: DIZ) is 5 mm; with Shigella boydii [7], 7 mm. In addition, the “diameter of the inhibition zone (DIZ)” value in the experiment with Listeria monocytogenes [6], in the experiment with Proteus [8] and in the experiment with Pseudomonas putida [9] was “inactive” in each case.
Take `CC1(C)S[C@@H]2[C@H](NC(=O)[C@H](N)c3ccc(O)cc3)C(=O)N2[C@H]1C(=O)O` [AMOXICILLIN]: the zone of inhibition at 30 µg/disc in the experiment on Shigella boydii [10] is 24 mm; in the experiment with Escherichia coli [11], 14 mm; with Staphylococcus aureus [12], 30 mm; with Listeria monocytogenes [13], 22 mm; with Proteus [14], 17 mm; with Shigella boydii [15], 14 mm. Moreover, the zone of inhibition at 30 µg/disc with Pseudomonas putida [16] stood at 15 mm; in the experiment with Shigella boydii [17], 19 mm; in the experiment with Salmonella typhimurium [18], 19 mm.

The record behind these values is ChEMBL document CHEMBL3046942, “Synthesis and biological activity of new cycloalkylthiophene-Schiff bases and their Cr(III) and Zn(II) complexes” (2010).
